Measurements taken from patent US4567165A, “N-Methanesulfonic acid derivatives of 3-demethoxyistamycin B” (Zaidan Hojin Biseibutsu Kagaku Kenkyu Kai, priority 1984, dated 1986).
≈ marks a conversion by molar mass, not a printed value.

What was measured:
[1] = test system: Pseudomonas aeruginosa A3; test: Minimum inhibitory concentration, standard serial dilution method on Mueller-Hinton agar; type: cell-based; details: 37° C., 17 hours
Source text: (§1) Minimum inhibitory concentrations (mcg/ml) of the parent 3-demethoxyistamycin B were also estimated in the same manner for the comparison purpose and also are shown in Table 1.

[2] = test system: Staphylococcus aureus Ap01; test: as above; type: cell-based; details: 37° C., 17 hours
Source text: as §1

[3] = test system: Serratia marcescens; test: as above; type: cell-based; details: 37° C., 17 hours
Source text: as §1

[4] = test system: Escherichia coli JR66/W677; test: as above; type: cell-based; details: 37° C., 17 hours
Source text: as §1

[5] = test system: Pseudomonas aeruginosa H9; test: as above; type: cell-based; details: 37° C., 17 hours
Source text: as §1

[6] = test system: Escherichia coli K-12 C600 R135; test: as above; type: cell-based; details: 17 hours; for Minimum Inhibitory concentration: 37° C.
Source text: as §1

[7] = test system: Pseudomonas aeruginosa TI-13; test: as above; type: cell-based; details: 17 hours; for Minimum Inhibitory concentration: 37° C.
Source text: as §1

[8] = test system: Providencia Pv 16; test: as above; type: cell-based; details: 17 hours; for Minimum Inhibitory concentration: 37° C.
Source text: as §1

[9] = test system: Staphylococcus aureus 209P; test: as above; type: cell-based; details: for Minimum Inhibitory concentration: Staphylococcus aureus 209P, Mueller-Hinton agar, 37° C., 17 hours
Source text: as §1

[10] = test system: Pseudomonas aeruginosa GN315; test: as above; type: cell-based; details: 37° C., 17 hours
Source text: as §1

[11] = test system: Escherichia coli K-12 LA290 R55; test: as above; type: cell-based; details: K12LA290R55, 17 h, read-out: Minimum Inhibitory concentration
Source text: as §1

[12] = test system: Escherichia coli K-12 ML1629; test: as above; type: cell-based; details: K12ML1629, 37° C., 17 hours
Source text: as §1

[13] = test system: Escherichia coli K-12 R5; test: as above; type: cell-based; details: K12R5, 17 h, read-out: Minimum Inhibitory concentration
Source text: as §1

[14] = test system: Escherichia coli K-12; test: as above; type: cell-based; details: K12, 37° C., 17 hours
Source text: as §1

[15] = test system: Escherichia coli JR225; test: as above; type: cell-based; details: JR225, 17 h, read-out: Minimum Inhibitory concentration
Source text: as §1

[16] = Acute toxicity, intravenous, in mice; details: mouse, in vivo, mice (ICR, adult female), single administration in saline
Description: Acute toxicity of the various N-methanesulfonic acid derivatives of 3-demethoxyistamycin B of the invention has been determined by the following procedure:
A test compound or substance was dissolved in 0.25 ml of a physiological saline solution and the solution of the test compound or substance so prepared was intravenously administered into a series of mouse groups each consisting of six mice (ICR strain, adult female, body weight 20 g±0.5 g) as the test animal, so that the test compound or substance was given to each mouse. Acute toxicity of 3-demethoxyistamycin B was also estimated in the same manner as above for the comparison purpose.

Compound: 3-demethoxyistamycin B-di-N-methanesulfonicacid sodium salt [Compound (2)]
- Minimum Inhibitory concentration [1]: 0.78 µg/mL
- Minimum Inhibitory concentration [2]: 0.78 µg/mL
- Minimum Inhibitory concentration [3]: 3.13 µg/mL
- Minimum Inhibitory concentration [4]: 3.13 µg/mL
- Minimum Inhibitory concentration [5]: 50 µg/mL
- Minimum Inhibitory concentration [6]: 6.25 µg/mL
- Minimum Inhibitory concentration [7]: 25 µg/mL
- Minimum Inhibitory concentration [8]: 1.56 µg/mL
- Minimum Inhibitory concentration [9]: 0.78 µg/mL
- Minimum Inhibitory concentration [10]: 100 µg/mL

Compound: 3-demethoxyistamycin B-mono-N-methanesulfonic acid sodium salt [Compound (1)]
- Minimum Inhibitory concentration [5]: 50 µg/mL
- Minimum Inhibitory concentration [6]: 6.25 µg/mL
- Minimum Inhibitory concentration [7]: 25 µg/mL
- Minimum Inhibitory concentration [10]: 100 µg/mL

Compound: 3-demethoxyistamycin B-tetra-N-methanesulfonic acid sodium salt [Compound (4)]
- Minimum Inhibitory concentration [2]: 1.56 µg/mL
- Minimum Inhibitory concentration [3]: 3.13 µg/mL
- Minimum Inhibitory concentration [4]: 6.25 µg/mL
- Minimum Inhibitory concentration [5]: 50 µg/mL
- Minimum Inhibitory concentration [8]: 1.56 µg/mL

Compound: 3-demethoxyistamycin B-tri-N-methanesulfonic acid sodium salt [Compound (3)]
- Minimum Inhibitory concentration [2]: 0.78 µg/mL
- Minimum Inhibitory concentration [3]: 6.25 µg/mL
- Minimum Inhibitory concentration [4]: 3.13 µg/mL
- Minimum Inhibitory concentration [5]: 50 µg/mL
- Minimum Inhibitory concentration [7]: 25 µg/mL
- Minimum Inhibitory concentration [9]: 1.56 µg/mL
- Minimum Inhibitory concentration [10]: 50 µg/mL

Compound: CNCC1CCC(N)C(OC2C(N)CCC(N(C)C(=O)CN)C2O)O1 (stereo not drawn) [3-Demethoxyistamycin B]
- MIC [11]: 1.56 mg/L (≈ 4.34 µM)
- MIC [1]: 0.39 mg/L (≈ 1.08 µM)
- MIC [12]: 0.78 mg/L (≈ 2.17 µM)
- MIC [2]: 0.39 mg/L (≈ 1.08 µM)
- MIC [13]: 1.56 mg/L (≈ 4.34 µM)
- MIC [3]: 0.78 mg/L (≈ 2.17 µM)
- MIC [14]: 0.78 mg/L (≈ 2.17 µM)
- MIC [4]: 0.78 mg/L (≈ 2.17 µM)
- MIC [5]: 12.5 mg/L (≈ 34.8 µM)
- MIC ([6]; K12C600R135, 37° C.): 0.78 mg/L (≈ 2.17 µM)
- MIC [15]: 0.78 mg/L (≈ 2.17 µM)
- MIC ([7]; TI13, 37° C.): 6.25 mg/L (≈ 17.4 µM)
- MIC ([8]; PV16, 37° C.): 0.78 mg/L (≈ 2.17 µM)
- MIC ([9]; Staphylococcus aureus, 209P, 17 h, read-out: Minimum Inhibitory concentration): < 0.2 mg/L
- MIC [10]: 6.25 mg/L (≈ 17.4 µM)
- LD50 [16]: 100 to 200 mg/kg
